# Measured values as given in BindingDB's records for doi:10.7270/Q2P26WT9 (The Scripps Research Institute Molecular Screening Center, 2014).
# Target: T1, RNA-editing ligase 1, mitochondrial (Trypanosoma brucei brucei, UniProt P86926)
# T1 sequence (P86926 whole entry): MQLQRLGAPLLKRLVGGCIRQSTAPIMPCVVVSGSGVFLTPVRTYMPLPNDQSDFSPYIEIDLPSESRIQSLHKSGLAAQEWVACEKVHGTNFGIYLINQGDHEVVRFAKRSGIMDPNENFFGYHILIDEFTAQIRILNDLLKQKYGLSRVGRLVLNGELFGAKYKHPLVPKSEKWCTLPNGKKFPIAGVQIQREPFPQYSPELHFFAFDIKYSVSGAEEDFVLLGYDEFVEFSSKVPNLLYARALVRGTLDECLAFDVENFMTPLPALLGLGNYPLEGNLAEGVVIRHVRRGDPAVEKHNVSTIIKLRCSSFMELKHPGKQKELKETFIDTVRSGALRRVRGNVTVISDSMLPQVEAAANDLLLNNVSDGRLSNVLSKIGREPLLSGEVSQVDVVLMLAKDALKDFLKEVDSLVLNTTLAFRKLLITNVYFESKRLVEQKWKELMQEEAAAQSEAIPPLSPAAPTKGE
# Assay: inhibition of trypanosome RNA editing ligase – biochemical, fluorescence, Trypanosoma brucei, dose response (AID 1117295)
row,SMILES,IC50
1,"Oc1ccccc1CN=Nc1cc(N2CCCC2)nc(N2CCCC2)n1 [(6E)-6-[[[2,6-bis(1-pyrrolidinyl)-4-pyrimidinyl]hydrazo]methylidene]-1-cyclohexa-2,4-dienone]",> 96.6 µM
2,"COc1ccc(Cn2c(Nc3cc(Cl)ccc3OC)c3[nH]cccc-3c2=O)cc1 [7-[(5-chloranyl-2-methoxy-phenyl)amino]-6-[(4-methoxyphenyl)methyl]-7H-pyrrolo[3,4-b]pyridin-5-one]",16.1 µM
3,NC(=NNC=c1ccc(=C2C=CC(=O)C(C(=O)O)=C2)o1)N[N+](=O)[O-] [5-(5-{2-[amino(nitroimino)methyl]carbonohydrazonoyl}-2-furyl)-2-hydroxybenzoic acid],21.2 µM
